Assay [1] has as its target T1, human recombinant GST cleaved CSNK1D (Homo sapiens, UniProt P48730).
T1 construct: GST (cleaved yes); purchased University of Dundee clone DU 19064
In words: Purified Enzyme Assay (ADP-Glo CSNK1D Kinase Assay). Type of assay: biochemical. To be noted: 2 nM CSNK1D; peptide substrate 150 μM; ATP 20 μM; 45 minutes at room temperature. An outline of the steps:
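Percent activity derived from ADP-Glo quantification of ADP produced. Reactions: compound dose-response with human recombinant GST-cleaved CSNK1D, ATP and substrate peptide PLSRTL-pS-VASLPGL, incubated 45 min at room temperature.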

For a further assay, the target named is T2, human CSNK1D (Homo sapiens, UniProt P48730).
T2 construct: expressed in transfected cells
Kind of assay: Whole Cell nBRET CSNK1D Binding Assay. The following applies: living CHO cells stably expressing human CSNK1D tagged with nanoluciferase; NanoBret tracer 130 nM; 2 hours at 37 C.

This note sets out measurements from patent publication US20230339970A1, “CASEIN KINASE 1 DELTA MODULATORS” (priority 2020, published 2023).

SMILES strings stand for the structures.

T2 sequence (P48730 whole entry): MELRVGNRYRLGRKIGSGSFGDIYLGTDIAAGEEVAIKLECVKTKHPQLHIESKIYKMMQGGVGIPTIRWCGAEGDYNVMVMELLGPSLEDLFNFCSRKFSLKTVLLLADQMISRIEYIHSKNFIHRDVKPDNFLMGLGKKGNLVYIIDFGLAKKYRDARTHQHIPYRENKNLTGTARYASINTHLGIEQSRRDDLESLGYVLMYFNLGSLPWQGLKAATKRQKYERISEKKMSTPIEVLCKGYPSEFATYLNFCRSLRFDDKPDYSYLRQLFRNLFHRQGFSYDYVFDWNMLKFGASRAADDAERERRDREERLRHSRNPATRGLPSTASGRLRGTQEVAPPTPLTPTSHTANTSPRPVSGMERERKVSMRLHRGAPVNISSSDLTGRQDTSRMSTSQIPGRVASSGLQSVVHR
T1 sequence (P48730 whole entry): as above

As to `COCC1(C)CCc2c(-c3cc(C)nc4[nH]ncc34)c(-c3ccc(F)cn3)nn2C1` (single isomer, unassigned) [Example 56, (*R)-4-(2-(S-Fluoropyridin-2-yl)-6-(methoxymethyl)-6-methyl-4,5,6,7-tetrahydropyrazolo[1,5-a]pyridin-3-yl)-6-methyl-1H-pyrazolo[3,4-b]pyridine], the IC50 in assay [1] came to 3 nM; on human CSNK1D, 63 nM.

Turning to `[2H]C([2H])([2H])C1(C([2H])([2H])[2H])CC(O)c2c(-c3ccnc4[nH]ncc34)c(-c3ccc(F)cn3)nn2C1` (centres unmarked) [Example 366, 2-(5-Fluoropyridin-2-yl)-6,6-bis(methyl-d3)-3-(1H-pyrazolo[3,4-b]pyridin-4-yl)-4,5,6,7-tetrahydropyrazolo[1,5-a]pyridin-4-ol], the IC50 in assay [1] stood at 14 nM; on human CSNK1D it was 176 nM.

Take `Cc1cc(-c2c(-c3ccc(F)cn3)nn3c2CCC2C3C2(F)F)c2cn[nH]c2n1` (racemic) [Example 59, (Racemic) 6,6-Difluoro-2-(5-fluoropyridin-2-yl)-3-(6-methyl-1H-pyrazolo[3,4-b]pyridin-4-yl)-5,5a,6,6a-tetrahydro-4H-cyclopropa[e]pyrazolo[1,5-a]pyridine]: the IC50 stood at 4 nM in assay [1] and 82 nM on human CSNK1D.

With `Fc1ccc(-c2nn3c(c2-c2ccnc4[nH]ncc24)CCC3)cc1` [Example 4, 4-(2-(4-Fluorophenyl)-5,6-dihydro-4H-pyrrolo[1,2-b]pyrazol-3-yl)-1H-pyrazolo[3,4-b]pyridine], the IC50 in assay [1] stood at 1 nM; at human CSNK1D, 22 nM.

Regarding `C[C@]1(CF)CCc2c(-c3ccnc4[nH]ncc34)c(-c3ccc(F)cn3)nn2C1` (single isomer, unassigned) [Example 51, (*)-4-[6-(Fluoromethyl)-2-(5-fluoro-2-pyridyl)-6-methyl-5,7-dihydro-4H-pyrazolo[1,5-a]pyridin-3-yl]-1H-pyrazolo[3,4-b]pyridine], the IC50 in assay [1] amounted to 1 nM; on human CSNK1D, 11 nM.

Turning to `Cc1n[nH]c2nccc(-c3c(-c4ccc(F)cc4)nn4c3COC(C(F)(F)F)C4)c12` (single isomer, unassigned) [Example 372, (*S)-2-(4-Fluorophenyl)-3-(3-methyl-1H-pyrazolo[3,4-b]pyridin-4-yl)-6-(trifluoromethyl)-6,7-dihydro-4H-pyrazolo[5,1-c][1,4]oxazine], the half-maximal inhibitory concentration (IC50) in assay [1] worked out at 42 nM; at human CSNK1D it was 724 nM.

On to `[2H]C([2H])([2H])C1(C([2H])([2H])[2H])Cn2nc(-c3ccc(F)cn3)c(-c3c(F)cnc4[nH]ncc34)c2CO1` [Example 399, 3-(5-Fluoro-1H-pyrazolo[3,4-b]pyridin-4-yl)-2-(5-fluoropyridin-2-yl)-6,6-bis(methyl-d3)-6,7-dihydro-4H-pyrazolo[5,1-c][1,4]oxazine], for which the half-inhibitory concentration (IC50) in assay [1] stood at 5 nM; at human CSNK1D, 95 nM.

Turning to `C[C@]1(C(F)(F)F)Cn2nc(-c3ccc(F)cc3)c(-c3ccn4nccc4c3)c2CO1` (single isomer, unassigned) [Example 412, (*R)-2-(4-Fluorophenyl)-6-methyl-3-(pyrazolo[1,5-a]pyridin-5-yl)-6-(trifluoromethyl)-6,7-dihydro-4H-pyrazolo[5,1-c][1,4]oxazine], the values for the IC50 (in assay [1]; on human CSNK1D) were 149 nM and 694 nM, respectively.

Consider `C[C@@H]1CCc2c(-c3ccnc4[nH]ncc34)c(-c3ccc(F)cn3)nn21` [Example 20, 4-[(6R)-2-(5-Fluoro-2-pyridyl)-6-methyl-5,6-dihydro-4H-pyrrolo[1,2-b]pyrazol-3-yl]-1H-pyrazolo[3,4-b]pyridine], for which the IC50 in assay [1] is 20 nM; at human CSNK1D, 411 nM.

As for `Cc1cc(-c2c(-c3ccc(F)cc3)nn3c2COCC32CC2)c2cn[nH]c2n1` [Example 107, 2′-(4-Fluorophenyl)-3′-(6-methyl-1H-pyrazolo[3,4-b]pyridin-4-yl)-4′H,6′H-spiro[cyclopropane-1,7-pyrazolo[5,1-c][1,4]oxazine]], the figures for the IC50 (in assay [1]; at human CSNK1D) were 9 nM and 72 nM, respectively.

Consider `C[C@@H]1n2nc(-c3ccc(F)cc3)c(-c3ccnc4[nH]ncc34)c2COC1(C)C` (single isomer, unassigned) [Example 171], for which the IC50 in assay [1] amounted to 1 nM; on human CSNK1D, 6 nM.

For the compound `Fc1ccc(-c2nn3c(c2-c2ccnc4[nH]ncc24)OCC2(CC2)C3)nc1` [Example 460, 2′-(5-Fluoropyridin-2-yl)-3′-(1H-pyrazolo[3,4-b]pyridin-4-yl)-5′H,7′H-spiro[cyclopropane-1,6′-pyrazolo[5,1-b][1,3]oxazine]], the IC50 in assay [1] is 2 nM; on human CSNK1D it was 24 nM.

With `COCC1(F)CCc2c(-c3cc(C)nc4[nH]ccc34)c(-c3ccc(F)cn3)nn2C1` (single isomer, unassigned) [Example 298, (*S)-4-[6-Fluoro-2-(5-fluoro-2-pyridyl)-6-(methoxymethyl)-5,7-dihydro-4H-pyrazolo[1,5-a]pyridin-3-yl]-6-methyl-1H-pyrrolo[2,3-b]pyridine], the half-maximal inhibitory concentration (IC50) in assay [1] came out at 2 nM; at human CSNK1D it was 12 nM.

Turning to `CC1(C)Cn2nc(-c3ccc(F)cn3)c(-c3ccn4ncc(N)c4c3)c2CO1` [Example 381, 5-[2-(5-Fluoro-2-pyridyl)-6,6-dimethyl-4,7-dihydropyrazolo[5,1-c][1,4]oxazin-3-yl]pyrazolo[1,5-a]pyridin-3-amine], the IC50 came to 64 nM in assay [1] and 228 nM on human CSNK1D.

In the case of `Cc1nc2[nH]ncc2c(-c2c(-c3ccc(F)cn3)nn3c2CC[C@@]2(C3)CC2(F)F)c1F` (single isomer, unassigned) [Example 331, (*S)-2,2-Difluoro-3′-(5-fluoro-6-methyl-1H-pyrazolo[3,4-b]pyridin-4-yl)-2′-(5-fluoropyridin-2-yl)-4′,5′-dihydro-7′H-spiro[cyclopropane-1,6′-pyrazolo[1,5-a]pyridine]], the IC50 in assay [1] was 18 nM; at human CSNK1D, 89 nM.

Take `Fc1ccc(-c2nn3c(c2-c2c(F)cnc4[nH]ncc24)OC[C@@H]2C[C@@H]2C3)nc1` (stereo in doubt) [Example 480, (5a*R,6a*S)-3-(5-Fluoro-1H-pyrazolo[3,4-b]pyridin-4-yl)-2-(5-fluoropyridin-2-yl)-5a,6,6a,7-tetrahydro-5H-cyclopropa[e]pyrazolo[5,1-b][1,3]oxazepine]: the IC50 in assay [1] was 10 nM; on human CSNK1D, 228 nM.

As to `CC1(C)Cn2nc(-c3ccc(F)cn3)c(-c3ccnc4[nH]nc(Cl)c34)c2CO1` [Example 388, 3-(3-Chloro-1H-pyrazolo[3,4-b]pyridin-4-yl)-2-(5-fluoropyridin-2-yl)-6,6-dimethyl-6,7-dihydro-4H-pyrazolo[5,1-c][1,4]oxazine], the IC50 was 4 nM in assay [1] and 14 nM at human CSNK1D.

As to `Cc1cc(-c2c(-c3ccc(F)cn3)nn3c2OCCCC3)c2cn[nH]c2n1` [Example 219, 2-(5-Fluoro-2-pyridyl)-3-(6-methyl-1H-pyrazolo[3,4-b]pyridin-4-yl)-5,6,7,8-tetrahydropyrazolo[5,1-b][1,3]oxazepane], the IC50 is 38 nM in assay [1] and 279 nM at human CSNK1D.

In the case of `Cc1cc(-c2c(-c3ccc(F)cn3)nn3c2CC(F)C3)c2cn[nH]c2n1` (centres unmarked) [Example 13, 4-(5-Fluoro-2-(5-fluoropyridin-2-yl)-5,6-dihydro-4H-pyrrolo[1,2-b]pyrazol-3-yl)-6-methyl-1H-pyrazolo[3,4-b]pyridine], the results for the IC50 (in assay [1]; at human CSNK1D) were 29 nM and 671 nM, respectively.
